Source: article PMC3921447, “Homologous and heterologous desensitization of guanylyl cyclase-B signaling in GH3 somatolactotropes” (Cell and Tissue Research, 2013)

How the values were obtained:
αT3-1 cells = conditions: ref Fowkes et al. [2000]; cited from earlier work
Excerpt: (§1) As activation of either GC-B or GC-A signaling leads to an increase in cGMP concentrations, we examined whether stimulation of each receptor would lead to the desensitization of the other receptor.

GC-A = conditions: ref Suga et al. [1992]; cited from earlier work
Excerpt: as §1

GC-B = target: T1, GC-B (Rattus norvegicus, UniProt P16067); test: Agonist-induced GC-B internalization by confocal immunofluorescence in GH3 cells; assay type: cell-based; conditions: 100 nM CNP, 0-4 h; n = 3; Fig. 5a-c
T1 construct: rapid homologous desensitization of endogenous GC-B receptors in GH3 cells; endogenous in cells; host or cells: GH3 rat somatolactotrope cells
T1 sequence (P16067 17-1047): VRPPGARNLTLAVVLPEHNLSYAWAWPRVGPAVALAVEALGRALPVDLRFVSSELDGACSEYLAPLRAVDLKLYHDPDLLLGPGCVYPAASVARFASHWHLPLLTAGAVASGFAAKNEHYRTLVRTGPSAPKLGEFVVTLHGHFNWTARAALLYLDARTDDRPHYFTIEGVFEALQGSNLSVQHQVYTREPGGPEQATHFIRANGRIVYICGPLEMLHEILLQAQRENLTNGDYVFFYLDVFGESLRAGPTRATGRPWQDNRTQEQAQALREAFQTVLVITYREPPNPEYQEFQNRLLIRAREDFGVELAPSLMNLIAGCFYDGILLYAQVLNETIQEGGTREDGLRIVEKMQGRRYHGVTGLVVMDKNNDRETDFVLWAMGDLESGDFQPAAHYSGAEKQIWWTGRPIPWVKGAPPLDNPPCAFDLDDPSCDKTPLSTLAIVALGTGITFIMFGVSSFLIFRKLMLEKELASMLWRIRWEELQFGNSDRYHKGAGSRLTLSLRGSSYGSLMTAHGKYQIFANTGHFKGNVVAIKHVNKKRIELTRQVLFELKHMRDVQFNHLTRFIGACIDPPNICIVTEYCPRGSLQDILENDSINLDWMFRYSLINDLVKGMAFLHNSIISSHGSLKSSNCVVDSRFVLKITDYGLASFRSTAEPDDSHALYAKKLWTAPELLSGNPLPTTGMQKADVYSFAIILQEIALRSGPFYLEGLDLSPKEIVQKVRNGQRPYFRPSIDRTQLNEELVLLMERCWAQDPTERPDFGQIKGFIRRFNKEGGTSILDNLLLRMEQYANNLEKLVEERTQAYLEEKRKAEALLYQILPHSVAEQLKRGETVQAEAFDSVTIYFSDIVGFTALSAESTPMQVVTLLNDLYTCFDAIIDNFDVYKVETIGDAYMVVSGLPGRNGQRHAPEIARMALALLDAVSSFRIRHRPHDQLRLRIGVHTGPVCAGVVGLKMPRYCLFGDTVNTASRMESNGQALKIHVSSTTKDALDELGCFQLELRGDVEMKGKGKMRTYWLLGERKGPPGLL
Protocol: GH3 cells were mounted on poly-L-lysine-coated coverslips and treated with either 0 or 100nM ANP or CNP in PSS during the indicated time points. Following treatment, cells were fixed with 4 % (w/v) formaldehyde for 10 min at room temperature and permeabilized with buffer (1 % [v/v] Tween-20 in 50 ml phosphate-buffered saline [PBS]) before incubation for 10 min at room temperature. Cells were then blocked with […] sodium azide dissolved in 92 % PBS, 3 % FCS and 5 % Tween-20 (v/v) for 20 min at room temperature, washed, then exposed to 1:200 diluted primary antibody solution (GC-A or GC-B, plus 0.1 % FCS and 0.1 % Tween-20) for 16 h at 4 °C. […] Following three PBS washes and a final 5-min PBS immersion at room temperature, the slides were mounted in Vectorshield (Vector Laboratories, Peterborough, UK) on standard VWR (VWR International, Leicestershire, UK) slides ready for analysis. A Leica SPS confocal scanning laser microscope was used to capture the staining, which was analyzed with Leica SPS software (Leica Microsystems, Milton Keynes, UK). […]
Fig. 5 Lack of ligand-dependent internalization of GC-B or GC-A in GH3 somatolactotrope cells. […] GC-A and GC-B immunoreactivity was detected by using Alexa488-conjugated secondary antibodies (green), whereas Alexa635-conjugated phalloidin was used to detect the actin cytoskeleton (red). […]

Npr2 = Npr2 mRNA expression by qPCR in GH3 cells; assay type: cell-based, rat; conditions: 100 nM CNP, 24 h; n = 3; Fig. 4a
Protocol: Total RNA was extracted from 1 × 10^6 GH3 cells or from male Sprague Dawley rat pituitaries by using Tri-reagent (Sigma-Aldrich, Poole, UK) and subjected to DNase treatment (Qiagen, Manchester, UK) before generation of first-strand cDNA (Applied Biosystems, Warrington, UK). Polymerase chain reaction (PCR) was performed for a range of targets for 30 cycles by using the primers and conditions published previously (Thompson et al. [2009]). In some instances, GH3 cells were treated with 0 or 100 nM CNP for 24 h prior to RNA extraction. These samples were processed for […] PCR (qPCR) analyses with commercially available rat Npr2 and 18S primer sets (Qiagen, Manchester, UK) under standard SYBR conditions as described previously (Bayol et al. [2010]).
We next examined whether Npr2 or GC-B down-regulation (as determined by a reduction in Npr2 mRNA expression and or GC-B protein expression) mediated the inhibitory effects of sustained CNP exposure. The effect of CNP exposure on the expression of the endogenous Npr2 gene was examined by using qPCR. […]
Fig. 4 CNP fails to alter expression of Npr2 mRNA or GC-B protein in GH3 somatolactotrope cells. a GH3 cells were stimulated with 0 or 100 nM CNP for 24 h prior to extraction of total RNA, cDNA synthesis, and quantitative PCR for endogenous Npr2 expression. […]

Question: Which “desensitization of the other receptor” value (αT3-1 cells) does the source give for `CC[C@H](C)[C@@H]1NC(=O)[C@H](CCCNC(=N)N)NC(=O)[C@H](CC(=O)O)NC(=O)[C@H](CC(C)C)NC(=O)[C@H](CCCCN)NC(=O)[C@H](CC(C)C)NC(=O)CNC(=O)[C@H](Cc2ccccc2)NC(=O)[C@@H](NC(=O)CNC(=O)[C@H](CCCCN)NC(=O)[C@H](CO)NC(=O)[C@H](CC(C)C)NC(=O)CN)CSSC[C@@H](C(=O)O)NC(=O)CNC(=O)[C@H](CC(C)C)NC(=O)CNC(=O)[C@H](CO)NC(=O)[C@H](CCSC)NC(=O)[C@H](CO)NC(=O)CNC1=O` [CNP, C-type natriuretic peptide] here?
Answer: Its value is “fail to desensitize the other receptor”.

Question: What about the “activation of the reciprocal receptor” value (GC-A) of the same molecule?
Answer: Its value is “can activate the reciprocal receptor, albeit only at pharmacological concentrations”.

Question: And the GC-B internalization (GC-B)?
Answer: Its GC-B internalization is “did not demonstrate any observable GC-B or GC-A internalization”.

Question: What about the “Npr2 mRNA expression” value (Npr2) of the same molecule?
Answer: Its value is “failed to alter Npr2 expression in GH3 cells”.
